Assay [1] has as its target IL-17A(FLAG-Tagged): IL-17RA(His-Tagged) (Homo sapiens, UniProt Q16552, K93Q). Briefly: IL-17A(FLAG-tagged):IL-17RA(His-tagged) binding disruption Eu-HTRF assay, Protocol 1. The note with it: FLAG tagged IL-17A at 2× final concentration (2.5 nM); simple average if tested more than once. An excerpt: IL-17A(FLAG-Tagged): IL-17RA(His-Tagged) Binding Disruption Eu-HTRF Assay
An antibody directed against the FLAG tag of IL-17A (SEQ ID NO:1) is labeled with the HTRF donor chromophore (Europium-cryptate). IL-17A is present as a dimer that is “locked into” this quaternary structure due to the formation of loop-spanning […] disulfide bridges. The construct of IL-17RA used in the assay excludes the outer-membrane portion of the receptor and is fused to a C-terminal 10×His tag (SEQ ID NO:2). An antibody directed against the His tag of the IL-17RA chimera is labeled with the HTRF acceptor chromophore (“D2”). The fluorescence-resonance energy transfer (FRET) depends on the vicinity of the donor chromophore to the acceptor, and interruption of the binding between the IL-17A and IL-17RA causes the reduction/loss of FRET. Therefore, this assay allows to evaluate the compound effect on the binding IL-17A and IL-17RA by monitoring the fluorescence intensity of donor vs acceptor. The assay was run using either Protocol 1 or Protocol 2 described below.
Protocol 1: 40 nL of 2-fold serial diluted compound solution for total 22 dilution points is added into each well of a 1536-well, white, low-volume, non-binding plate (Greiner #782904), then 2 μl of FLAG tagged IL-17A at 2× final concentration (2.5 nM) in solution of PBS+0.01% Triton-X100 is added to each well. The assay plate is briefly centrifuged then incubated for 1 h at rt. A mixed solution is prepared containing 2×5 nM 10HIS×IL-17RA, 2×2.5 nM Eu-anti-FLAG (CISBIO), 2×5 nM D2-anti-HIS (CISBIO) in PBS+0.01% Triton-X100+200 mM Potassium Fluoride (Sigma 60238) and […] of mix is added to each well of the assay plate. The plate is briefly centrifuged then incubated for 2 h at rt. The HTRF intensities at the wavelength of donor (620 nm) and acceptor (665 nm) are measured using BMG Pherastar. The ratio between intensities at two wavelengths is calculated and plotted against the compound concentration and the data is fitted to a one-site competition model to yield IC50 of the compound.
On the technique in general: TR-FRET usually uses a lanthanide donor and a delayed reading to cut background.

In assay [2] the test system is IL-17A-induced G-CSF production in human normal keratinocyte (NHK). Briefly: NHK assay: IL-17A-induced G-CSF production in normal human keratinocytes. It counts as cell-based. The note with it: Homo sapiens, Keratinocyte; IL-17A 5 ng/mL, 24 h at 37° C., G-CSF by HTRF; simple average if tested more than once. The protocol:
IL-17A acts directly on keratinocytes through binding to dimeric receptor IL-17RA/RC and drives the production of a number of inflammatory mediators known to be elevated in psoriasis lesional tissue. IL-17A small molecule inhibitors that block the IL-17A to interact with IL-17R would inhibit the IL-17A signaling in its targeted cells such as keratinocytes. The compound functional activity is evaluated for its impact on IL-17A-induced G-CSF production in human normal keratinocyte (NHK).
Adult normal human keratinocytes are cultured in keratinocyte growth medium (Lonza) in a flask till reaching ˜90% confluence, then cells are transferred to a 384-well plate at density of 3000-4000 cell/well. Recombinant human IL-17A (Gibco PHC9174) is pre-incubated with titrated compound or DMSO for 1 h at rt then added to the cell culture plate. The final concentration of IL-17A is 5 ng/mL and DMSO is 0.2%, in the culture containing 5% FBS. Cells are cultured/treated for 24 h at 37° C. Supernatants are collected and G-CSF production is measured through HTRF technology using Human G-CSF Kit (CisBio). G-CSF concentration was extrapolated from the standard curve and IC50 is determined using GraphPad Prism. Cell viability is also evaluated using CellTiter-Glo kit (Promega) and effect of compound on cell viability is compared to DMSO control.

Among the data in patent US12215111B2, “Imidazopyridazine IL-17 inhibitor compounds” (Janssen Pharmaceutica NV, priority 2021, dated 2025) are IC50 values, retold here.

For orientation: IC50 means the midpoint of a concentration-inhibition curve. A lower IC50 goes with greater potency.

Sequence of UniProt Q16552 (Q16552 with tags, fused parts or gaps K93Q): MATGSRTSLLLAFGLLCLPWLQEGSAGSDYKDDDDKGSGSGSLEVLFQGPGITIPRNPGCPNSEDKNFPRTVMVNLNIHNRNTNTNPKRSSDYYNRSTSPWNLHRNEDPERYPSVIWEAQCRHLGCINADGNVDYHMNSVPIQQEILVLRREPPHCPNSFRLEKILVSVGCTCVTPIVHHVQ

Take `COC[C@H](c1cnn2cc([C@H](COC(C)(C)C(F)(F)F)NC(=O)c3ccnn3C(C)C)nc2c1)N1C[C@@H](C(F)(F)F)NC1=O` [Example 11]: the IC50 in assay [1] and in assay [2] was < 4 µM throughout.

As to `Cc1nonc1C(=O)N[C@H](c1cn2ncc([C@@H](C3CC3)N3C[C@@H](C(C)C)NC3=O)cc2n1)C1CCC(F)(F)CC1` [Example 18, N—[(S)—[7-[(R)-Cyclopropyl-[(4R)-4-isopropyl-2-oxo-imidazolidin-1-yl]methyl]imidazo[1,2-b]pyridazin-2-yl]-(4,4-difluorocyclohexyl)methyl]-4-methyl-1,2,5-oxadiazole-3-carboxamide], the IC50 in assay [1] and in assay [2] was < 4 µM throughout.

As to `[2H]C([2H])([2H])C([2H])([2H])n1nccc1C(=O)N[C@@H](COC(C)(C)C(F)(F)F)c1cn2ncc([C@@H](COC)N3C[C@@H](C(F)(F)F)NC3=O)cc2n1` [Example 12], the IC50 in assay [1] and in assay [2] was < 4 µM throughout.

`CC(C)n1nccc1C(=O)N[C@H](c1cn2ncc(CN3CCNC3=O)cc2n1)C1CCC(F)(F)CC1` [Example 3, (S)—N-((4,4-Difluorocyclohexyl)(7-((2-oxoimidazolidin-1-yl)methyl)imidazo[1,2-b]pyridazin-2-yl)methyl)-1-isopropyl-1H-pyrazole-5-carboxamide]: the IC50 in assay [1] and in assay [2] was < 4 µM each time.

`COC[C@H](c1cnn2cc([C@H](COC(C)(C)C(F)(F)F)NC(=O)c3ncnn3C(C)C)nc2c1)N1C[C@@H](C(F)(F)F)NC1=O` [Example 36, 1-Isopropyl-N—((R)-1-(7-((S)-2-methoxy-1-((S)-2-oxo-4-(trifluoromethyl)imidazolidin-1-yl)ethyl)imidazo[1,2-b]pyridazin-2-yl)-2-((1,1,1-trifluoro-2-methylpropan-2-yl)oxy)ethyl)-1H-1,2,4-triazole-5-carboxamide]: the concentration for half-maximal inhibition (IC50) in assay [1] and in assay [2] was < 4 µM throughout.

For the compound `C[C@@H]1CN(Cc2cnn3cc([C@@H](NC(=O)c4nonc4C4CC4)C4CCC(F)(F)CC4)nc3c2)C(=O)N1` [Example 6, 4-Cyclopropyl-N—((S)—(4,4-difluorocyclohexyl)(7-(((R)-4-methyl-2-oxoimidazolidin-1-yl)methyl)imidazo[1,2-b]pyridazin-2-yl)methyl)-1,2,5-oxadiazole-3-carboxamide], the IC50 in assay [1] and in assay [2] was < 4 µM in each case.

Regarding `COC[C@H](c1cnn2cc([C@H](COC(C)(C)C(F)(F)F)NC(=O)[C@H]3C[C@@H]3C(F)(F)F)nc2c1)N1C[C@@H](C(F)(F)F)NC1=O` (relative stereo) [Example 33, (1S*,2S*)—N—((R)-1-(7-((S)-2-Methoxy-1-((S)-2-oxo-4-(trifluoromethyl)imidazolidin-1-yl)ethyl)imidazo[1,2-b]pyridazin-2-yl)-2-(1,1,1-trifluoro-2-methylpropan-2-yl)oxy)ethyl)-2-(trifluoromethyl)cyclopropane-1-carboxamide], the IC50 in assay [1] and in assay [2] was < 4 µM throughout.

As to `O=C(N[C@H](c1cn2ncc(CN3C(=O)N[C@H]4CC(F)(F)C[C@H]43)cc2n1)C1CCC(F)(F)CC1)c1nonc1C1CC1` (single isomer, unassigned) [Example 8, 4-Cyclopropyl-N—((S)-(7-(((3aS*,6aR*)-5,5-difluoro-2-oxohexahydrocyclopenta[d]imidazol-1(2H)-yl)methyl)imidazo[1,2-b]pyridazin-2-yl)(4,4-difluorocyclohexyl)methyl)-1,2,5-oxadiazole-3-carboxamide], the IC50 in assay [1] and in assay [2] was < 4 µM each time.

Turning to `Cc1nonc1C(=O)N[C@H](c1cn2ncc([C@@H](C3CC3)N3C[C@@H](C4CC4)NC3=O)cc2n1)C1CCC(F)(F)CC1` [Example 17, N—[(S)—[7-[(R)-Cyclopropyl-[(4R)-4-cyclopropyl-2-oxo-imidazolidin-1-yl]methyl]imidazo[1,2-b]pyridazin-2-yl]-(4,4-difluorocyclohexyl)methyl]-4-methyl-1,2,5-oxadiazole-3-carboxamide], the IC50 in assay [1] and in assay [2] was < 4 µM throughout.

Regarding `Cc1nonc1C(=O)N[C@H](c1cn2ncc([C@H](N3C[C@@H](C(F)(F)F)NC3=O)C3(C#N)CCC3)cc2n1)C1CCC(F)(F)CC1` [Example 22, N—((S)-(7-((S)—(1-Cyanocyclobutyl)((S)-2-oxo-4-(trifluoromethyl)imidazolidin-1-yl)methyl)imidazo[1,2-b]pyridazin-2-yl)(4,4-difluorocyclohexyl)methyl)-4-methyl-1,2,5-oxadiazole-3-carboxamide], the half-inhibitory concentration (IC50) in assay [1] and in assay [2] was < 4 µM in each case.

Consider `Cc1nonc1C(=O)N[C@H](c1cn2ncc(CN3CCNC3=O)cc2n1)C1CCC(F)(F)CC1` [Example 1, (S)—N-((4,4-Difluorocyclohexyl)(7-((2-oxoimidazolidin-1-yl)methyl)imidazo[1,2-b]pyridazin-2-yl)methyl)-4-methyl-1,2,5-oxadiazole-3-carboxamide], for which the figures for the IC50 in assay [1] and in assay [2] were < 4 µM and 4 to 10 µM, respectively.

Take `CC(C)n1nccc1C(=O)N[C@H](c1cn2ncc(CN3C[C@H](C)NC3=O)cc2n1)C1CCC(F)(F)CC1` [Example 5, N—((S)—(4,4-Difluorocyclohexyl)(7-(((S)-4-methyl-2-oxoimidazolidin-1-yl)methyl)imidazo[1,2-b]pyridazin-2-yl)methyl)-1-isopropyl-1H-pyrazole-5-carboxamide]: the values for the IC50 in assay [1] and in assay [2] were < 4 µM and > 10 µM, respectively.

As to `O=C(N[C@H](c1cn2ncc(CN3CCNC3=O)cc2n1)C1CCC(F)(F)CC1)c1nonc1C1CC1` [Example 2, (S)-4-Cyclopropyl-N-((4,4-difluorocyclohexyl)(7-((2-oxoimidazolidin-1-yl)methyl)imidazo[1,2-b]pyridazin-2-yl)methyl)-1,2,5-oxadiazole-3-carboxamide], the IC50 in assay [1] and in assay [2] was < 4 µM each time.

In the case of `COC[C@H](c1cnn2cc([C@H](COC(C)(C)C(F)(F)F)NC(=O)c3nonc3C)nc2c1)N1C[C@@H](C(F)(F)F)NC1=O` [Example 9], the IC50 in assay [1] and in assay [2] was < 4 µM each time.

For the compound `Cc1nonc1C(=O)N[C@H](c1cn2ncc([C@@H](C3CC3)N3CC(CC(F)(F)F)NC3=O)cc2n1)C1CCC(F)(F)CC1` (single isomer, unassigned) [Example 19, N—((S)-(7-((R)-Cyclopropyl((R*)-2-oxo-4-(2,2,2-trifluoroethyl)imidazolidin-1-yl)methyl)imidazo[1,2-b]pyridazin-2-yl)(4,4-difluorocyclohexyl)methyl)-4-methyl-1,2,5-oxadiazole-3-carboxamide], the IC50 in assay [1] and in assay [2] was < 4 µM throughout.

In the case of `COC[C@H](c1cnn2cc([C@H](COC(C)(C)C(F)(F)F)NC(=O)c3nonc3C3CC3)nc2c1)N1C[C@@H](C(F)(F)F)NC1=O` [Example 10], the IC50 in assay [1] and in assay [2] was < 4 µM each time.
